Measurements taken from ChEMBL document CHEMBL4308849, “Antimalarial Lead-Optimization Studies on a 2,6-Imidazopyridine Series within a Constrained Chemical Space To Circumvent Atypical Dose-Response Curves against Multidrug Resistant Parasite Strains” (J Med Chem, 2018).

Tests used:
[1] = Metabolic stability in human liver microsomes assessed as parent compound remaining at 0.1 uM after 60 mins in presence of NADPH by LC-MS/MS analysis; type: ADME, Microsome; conditions: read-out: Stability
[2] = Metabolic stability in mouse liver microsomes assessed as parent compound remaining at 0.1 uM after 60 mins in presence of NADPH by LC-MS/MS analysis; type: ADME, Microsome; conditions: read-out: Stability
[3] = Metabolic stability in rat liver microsomes assessed as parent compound remaining at 0.1 uM after 60 mins in presence of NADPH by LC-MS/MS analysis; type: ADME, Microsome; conditions: read-out: Stability
[4] = AUC (0 to infinity) in Balb/c mouse at 20 mg/kg, po by LC-MS/MS analysis; type: ADME, organism-based; parameters: dose 20 mg/kg, route oral, time infinity; conditions: in vivo
[5] = Oral bioavailability in Balb/c mouse at 20 mg/kg by LC-MS/MS analysis; type: ADME, organism-based; conditions: in vivo
[6] = Half life in Balb/c mouse at 2 mg/kg, iv by LC-MS/MS analysis; type: ADME, organism-based; conditions: in vivo
[7] = AUC (0 to infinity) in Balb/c mouse at 2 mg/kg, iv by LC-MS/MS analysis; type: ADME, organism-based; parameters: dose 2 mg/kg, route intravenous, time infinity; conditions: in vivo
[8] = Tmax in Balb/c mouse at 20 mg/kg, po by LC-MS/MS analysis; type: ADME, organism-based; conditions: in vivo
[9] = Cmax in Balb/c mouse at 20 mg/kg, po by LC-MS/MS analysis; type: ADME, organism-based; parameters: dose 20 mg/kg, route oral; conditions: in vivo
[10] = Blood clearance in Balb/c mouse at 2 mg/kg, iv by LC-MS/MS analysis; type: ADME, organism-based; conditions: whole blood
[11] = Volume of distribution in Balb/c mouse at 2 mg/kg, iv by LC-MS/MS analysis; type: ADME, organism-based; conditions: in vivo

| SMILES | remaining at 1 h, 0.1 µM [1] | remaining at 1 h, 0.1 µM [2] | remaining at 1 h, 0.1 µM [3] | further results |
| --- | --- | --- | --- | --- |
| CC(C)CN1CCN(c2ccc(Nc3cc4[nH]c(C5CCC(F)(F)CC5)nc4cn3)nc2)CC1 | 59% | 61% | 64% | – |
| Fc1ccc(-c2nc3cnc(Nc4ccc(N5CCN(CC6CC6)CC5)cn4)cc3[nH]2)cc1F | 7% | 14% | 9% | – |
| FC1(F)CC(c2nc3cnc(Nc4ccc(N5CCN(CC6CC6)CC5)cn4)cc3[nH]2)C1 | 86% | 54% | 52% | – |
| Fc1ccc(-c2nc3cnc(Nc4ccc(N5CCNCC5)cn4)cc3[nH]2)cc1F | 92% | 75% | 73% | – |
| O=C(c1ccnc(Nc2cc3[nH]c(-c4ccc(F)c(C(F)(F)F)c4)nc3cn2)c1)N1CCN(C2CC2)CC1 | 77% | 93% | 53% | – |

The next lines start with results.

| remaining at 1 h, 0.1 µM [1] | remaining at 1 h, 0.1 µM [2] | remaining at 1 h, 0.1 µM [3] | SMILES | further results |
| --- | --- | --- | --- | --- |
| 65% | 26% | 48% | CC(C)(C)N1CCN(C(=O)c2ccnc(Nc3cc4[nH]c(-c5cccc(C(F)(F)F)c5)nc4cn3)c2)CC1 | AUC(0-inf) [4]: 0.2 µM·h; bioavailability [5]: 2%; half-life [6]: 19 h; AUC(0-inf) [7]: 0.933 µM·h; Tmax [8]: 0.5 h; Cmax [9]: 40 nM; clearance [10]: 68 mL/min/kg; Vd [11]: 117 L/kg |
| 93% | 68% | 55% | FC(F)(F)c1ccc(-c2nc3cnc(Nc4ccc(N5CCN(CC6CC6)CC5)cn4)cc3[nH]2)cn1 | – |
| 52% | 41% | 36% | Fc1ccc(-c2nc3cnc(Nc4ccc(N5CCN(CC6CC6)CC5)cn4)cc3[nH]2)cc1C(F)(F)F | – |
| 98% | 87% | 97% | Fc1ccc(-c2nc3cnc(Nc4ccc(C5CCNCC5)cn4)cc3[nH]2)cc1F | – |
| 98% | 78% | 73% | Fc1ccc(Nc2cc3[nH]c(Nc4cc(N5CCNCC5)ccn4)nc3cn2)cc1C(F)(F)F | – |
| 92% | 55% | 59% | Fc1ccc(Nc2cc3[nH]c(Nc4ccc(N5CCNCC5)cn4)nc3cn2)cc1C(F)(F)F | – |
